Data reported in patent publication US20040143025A1, “Carbon monoxide generating compunds for treatment of vascular, inflammatory and immune disorders” (priority 2002, published 2004).

Tests used:
HO-1 [1] = test: HO-1 enzymatic activity in liver homogenates; format: biochemical, rat; settings: liver after perfusion; ZnPP = 1.5 mg/kg i.p. 24 h before harvest then CO perfusion; CO = CO only
Protocol: HO-1 Enzymatic Activity. Livers were homogenized on ice in a Tris-HCl lysis buffer (pH 7.4) containing 0.5% Triton X-100 and protease inhibitors. Samples were frozen in small aliquots until use. Homogenates (100 μl) were mixed with 0.8 mM NADPH, 0.8 mM glucose-6-phosphate 1.0 unit G-60P dehydrogenase, 1 mM MgCl2 and […] purified rat liver biliverdin reductase at 4° C. The reaction was initiated by the addition of hemin (final concentration 0.25 mM). The reaction mixture was incubated at 37° C. in the dark for 15 min. At the end of incubation period, any insoluble material was removed by centrifugation and supernatants were analyzed for bilirubin concentration. An extinction coefficient of 40 mM^−1 cm^−1 at A 460-530 was used to calculate the amount of bilirubin formed. Controls included naive samples in the absence of the NADPH generating system and all the ingredients of the reaction mixture in the absence of graft homogenates. Biliverdin reductase was purified from rat liver, as described in Browne and Ultrich, Mol. Pharmacol. 32:497-504 (1987).

HO-1 [2] = test: Western blot of liver samples, HO-1; design: species or system rat; settings: 2 h after perfusion
Protocol: Western blots. Protein was extracted from liver samples with PBSTDS buffer (50 mM Tris, 150 mM NaCl, 0.1% SDS, 1% sodium deoxycholate, and 1% triton X-100, pH 7.2). Proteins (30 μg/sample) in SDS-loading buffer (50 mM Tris, pH 7.6, 10% glycerol, 1% SDS) were subjected to 12% SDS-polyacrylamide gel electrophoresis and transferred to nitrocellulose membrane (Bio-Rad, Hercules, Calif.). The gel was stained with coomassie blue to document equal protein loading. The membrane was blocked with 3% dry milk and 0.1% Tween 20 (USB, Cleveland, Ohio) in PBS and incubated with rabbit anti-rat HO-1 or iNOS polyclonal Abs (SangStat, Fremont, Calif.). Relative protein quantities were determined using a densitometer (Kodak Digital Science 1D Analysis Software, Rochester, N.Y.).

rat liver = test: Histologic severity of I/R injury, Banff criteria; design: species or system Sprague Dawley (SD) rats; settings: CO, scale 1-4
Description: Histology. Liver specimens were fixed in a 10% buffered formalin solution and embedded in paraffin. Sections were made at 4 μm and stained with H&E. The histologic severity of I/R injury was graded using International Banff Criteria (Int'l Banff Schema Conference Worksheet, The Third Int'l Banff Conference on Allograft Pathology, June 21-25 (1995)). Using these criteria, lobular disarray and ballooning changes are graded from 1-4, where no change is given a score of 1 and severe disarray or ballooning changes are given a score of 4.

[3] = tested on: anti-MHC class I alloantibodies; test: Detection of alloantibodies (cytofluorimetry); format: in vivo, rat; settings: vs recipients of control adenovirus-treated aortas
Protocol: Detection of alloantibodies. Donor LEW.1W splenocyts were incubated with heat-inactivated serum from ELW.1A recipients, serially diluted in PBS. Cells were then washed and simultaneously incubated with FITC-coupled donkey anti-rat IgG (Jackson Laboratories) and with a biotin-labeled anti-B cell Mab (clone OX33, ECACC). After washing, cells were incubated with phycoerythrin-coupled streptavidin. Serum levels of alloantibodies were determined by cytofluorimetry (FACScalibur, Becton Dickinson, San Jose, Calif.) and reported as the mean channel fluorescence (MCF) at each dilution of serum. A predominance of anti-donor MHC class II alloantibodies, as previously described in certain tolerance models (Cuturi et al., Eur. J. Immunol. 24:1627-31 (1994)), is detected by the binding of alloantibodies only to OX33 positive cells (B cells). The presence of anti-MHC class I alloantibodies results in labeling of OX33 negative (T cells) and positive cells. MCF of alloantibody binding to OX33 negative cells indicated the level of anti-MHC I alloantibodies.

C57BL/6 ApoE (−/−) mice = test: Carotid wire injury in atherogenic ApoE-/- mouse, neointimal formation; format: in vivo; settings: day -1 to day 28
Protocol: The effects of CO generated though metabolic degradation of methylene chloride are investigated in an atherosclerotic mouse carotid intimal denudation model. Female C57BL/6 ApoE (−/−) mice (10-12 weeks old, n=12/group) are fed Western diet for 1 week prior to injury and 4 weeks after injury. On day 0 mice are anesthesized with ip injection of ketamine (80 mg/kg) & xylazine (5 mg/kg). The left carotid artery is isolated and two ligatures (6-O silk) are placed around the external carotid artery, ligatures are also placed around the common and internal carotid arteries. After the distal external carotid ligatures are tied, the carotid is incised with Vannas scissors proximal to the ligature. A curved flexible wire (0.35 mm/0.014 in diameter) is introduced into the external carotid and passed three times along the wall of the common carotid while being rotated. Upon removal of the wire the proximal carotid ligature is tied and the skin is reopposed with 6-O silk.
Methylene chloride (25, 100, 400 mg/kg/day) is administered intraperitoneally or orally starting on day-1 until day 28. A control group is treated with vehicle. On day 28 animals are sacrificed and after incision, the right and left common, external, and internal carotids are ligated. After sternotomy, common carotids are dissected further to the aortic arch. A 27-gauge needle is placed in the left ventricle and a systemic perfusion with phosphate buffered paraformaldehyde (100 mM, 4% wt/vol, pH 7.3) is performed at 100 mmHg via the left ventricular cannula. Subsequently, the common, internal and external carotid arteries are transected and removed. Specimens are dehydrated in ethanol and xylene, and embedded in paraffin. Tissue sections are stained and VSMC proliferation is assessed microscopically by histomorphometry. Methylene chloride therapy at 400, 100, and 25 mg/kg/day inhibits neointimal formation by 90%, 75% and 30% respectively.

allogeneic OLTs = test: In vivo detection of apoptosis in OLTs; design: species or system rat; settings: day 10 post-transplant
Protocol: In vivo detection of apoptosis. A commercial in situ histochemical assay (Klenow-FragEL, Oncogene Research Products, Cambridge, Mass.) was performed to detect the DNA fragmentation characteristic of apoptosis in formalin-fixed paraffin-embedded tissue sections. In this assay, Kienow binds to exposed ends of DNA fragments generated in response to apoptotic signals and catalyzes the template-dependent addition of biotin-labeled and unlabeled deoxynucleotides. Biotinylated nucleotides are detected using a streptavidin-horse radish peroxidase (HRP) conjugate. Diaminobenzidine reacts with the labeled sample to generate an insoluble colored substrate at the site of DNA fragmentation. Counterstaining with methyl green aids in the morphological evaluation and characterization of normal and apoptotic cells. The results were scored semi-quantitatively by averaging the number of apoptotic cells per microscopic field at 200× magnification. Six fields were evaluated per tissue sample. All data are expressed as mean±SD.

| Compound | HO-1 enzyme activity (HO-1 [1]) | HO-1 protein accentuated (Western blot) vs air alone (HO-1 [2]) | Banff score of I/R injury (rat liver; 1 h reperfusion) | Banff score of I/R injury (rat liver; 2 h reperfusion) | levels of anti-MHC class I alloantibodies [3] | inhibition of neointimal formation (C57BL/6 ApoE (−/−) mice; 25 mg/kg/day) [%] | inhibition of neointimal formation (C57BL/6 ApoE (−/−) mice; 100 mg/kg/day) [%] | inhibition of neointimal formation (C57BL/6 ApoE (−/−) mice; 400 mg/kg/day) [%] | TUNEL+ cells/field in allogeneic OLTs (allogeneic OLTs) |
| --- | --- | --- | --- | --- | --- | --- | --- | --- | --- |
| [C-]#[O+] [CO, carbon monoxide] | 2.25±0.18 nmol of bilirubin/mg/protein/min | ca. 3 fold | 1.2±0.31 | 2.0±0.12 |  |  |  |  |  |
| ClCCl [methylene chloride] |  |  |  |  | no statistical differences | 30 | 75 | 90 | 4.5±2.3 |
